Test results as given in patent US20160051665A1, “INDUCTION OF IMMUNE RESPONSE” (priority 2010, published 2016).

What was measured:
oligosaccharide addition = conditions: cited from earlier work
glucosidase I = molecular target: T1, glucosidase I (Homo sapiens, UniProt Q13724); conditions: cited from earlier work
T1 sequence (Q13724 1-837): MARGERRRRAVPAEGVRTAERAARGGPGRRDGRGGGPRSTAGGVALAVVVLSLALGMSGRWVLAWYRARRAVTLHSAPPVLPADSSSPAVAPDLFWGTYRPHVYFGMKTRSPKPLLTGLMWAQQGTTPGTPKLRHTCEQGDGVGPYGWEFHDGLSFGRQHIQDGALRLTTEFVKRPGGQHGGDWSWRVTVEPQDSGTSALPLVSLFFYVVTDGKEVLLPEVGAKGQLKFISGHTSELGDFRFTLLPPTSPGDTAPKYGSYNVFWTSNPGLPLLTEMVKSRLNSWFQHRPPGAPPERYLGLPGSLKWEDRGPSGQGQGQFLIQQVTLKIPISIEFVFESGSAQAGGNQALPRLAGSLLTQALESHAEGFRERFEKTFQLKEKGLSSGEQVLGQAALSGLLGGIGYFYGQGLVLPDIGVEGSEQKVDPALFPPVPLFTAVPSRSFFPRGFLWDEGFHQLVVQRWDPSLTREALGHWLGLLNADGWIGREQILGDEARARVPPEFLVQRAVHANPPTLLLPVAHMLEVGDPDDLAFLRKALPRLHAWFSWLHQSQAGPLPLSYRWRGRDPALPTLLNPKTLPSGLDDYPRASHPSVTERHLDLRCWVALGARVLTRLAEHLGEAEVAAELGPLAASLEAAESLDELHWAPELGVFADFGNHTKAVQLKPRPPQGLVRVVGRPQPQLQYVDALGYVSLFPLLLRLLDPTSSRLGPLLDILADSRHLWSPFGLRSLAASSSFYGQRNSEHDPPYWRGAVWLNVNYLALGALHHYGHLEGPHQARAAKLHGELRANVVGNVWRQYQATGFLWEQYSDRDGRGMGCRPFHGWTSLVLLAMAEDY

[1] = tested on: woodchuck hepatitis virus (WHV); conditions: previous study (ref. 11); cited from earlier work
[2] = tested on: HLA-A2 expressing T2 target cells; test: interferon-γ ELISpot: peptide-primed CTLs against peptide-pulsed T2 cells; assay type: cell-based, human; conditions: PBMCs of healthy HLA-A2 donors stimulated in vitro with peptide; FIG. 2A
Procedure: Heparinized blood from healthy HLA-A2 donors was purchased from Research Blood Components, LLC, (Brighton, Mass.). Peripheral blood mononuclear cells were purified and cultured as described (13, 21). After initial stimulation with synthetic peptide, T cells were re-stimulated with CD4/CD8 T cell depleted autologous monocytes pulsed with synthetic peptide at 10 μg/ml for 5 days. IL-2 treatment and in vitro re-stimulation were repeated thrice prior to use of in vitro expanded T cells in ELISpot assays.
In vitro expanded CTLs were used as effectors in ELISpot assays to assess antigen stimulated interferon-γ release according to the manufacturer's instructions (BD-Pharmingen, San Jose, Calif.). Target cells were HepG2 human hepatoma cells (HBV negative; American Type Culture Collection) or HBV-containing HepG2.2.15 cells (22). […]
Peptides presented on the surface of a cell in the context of the MHC class I complex should be recognized with high sensitivity upon incubation with cognate peptide-primed CTLs, with specific killing of the target cells. […] Target cell recognition was quantified by interferon-γ ELISpot assay.
The ability of in vitro generated CTLs to recognize and secrete interferon-γ was evaluated by ELISpot assay. […] The P value was calculated from a Student's t-Test analysis of experimental results.

Compound | prevention of oligosaccharide addition (oligosaccharide addition) | elicitation of specific CTLs that recognize T2 target cells [2] | other results
O[C@H]1[C@H](O)[C@@H](O)CN2CC[C@H](O)[C@H]12 [Castanospermine] | does not |  | potency as inhibitor of glucosidase I relative to deoxynojirimycin (glucosidase I): more potent inhibitors of glucosidase I than deoxynojirimycin
CCCCCCCCCN1C[C@H](O)[C@@H](O)[C@H](O)[C@H]1CO [N-nonyl deoxynojirimycin] |  |  | antiviral activity in woodchucks [1]: antiviral activity had previously been observed
OC[C@H]1NC[C@H](O)[C@@H](O)[C@@H]1O [deoxynojirimycin] | prevents oligosaccharide addition some fraction of the time |  | 
KPSDGDCTC [D-peptide, de-N-glycosylated 'D' substituted HBs peptide] |  | effective elicitors of specific CTLs | 
KPSDGNCTC [N-peptide] |  | effective elicitors of specific CTLs | 
